According to patent US9688695B2, “Imidazothiadiazole and imidazopyrazine derivatives as protease activated receptor 4 (PAR4) inhibitors for treating platelet aggregation” (BRISTOL-MYERS SQUIBB COMPANY, priority 2012, dated 2017):

Molecular target: PAR4 (Homo sapiens (Human), UniProt Q96RI0)
Assay: FLIPR assay in PAR4-expressing HEK293 cells (PAR4 antagonist activity, calcium mobilization)
Format: cell-based
Details: H-Ala-Phe(4-F)-Pro-Gly-Trp-Leu-Val-Lys-Asn-Gly-NH2-induced calcium mobilization
Source text: The FLIPR assay is an exemplary in vitro assay for measuring the activity of the PAR4 antagonists of the present invention. In this assay, intracellular calcium mobilization is induced in PAR4 expressing cells by a PAR4 agonist and calcium mobilization is monitored. See, e.g., Example A.
HEK293 cells stably expressing PAR4 were generated by a standard method of transfection of human […] cDNA expression vector or by RAGE technology from Athersys Inc. (Cleveland, Ohio) and selected based on PAR4 protein expression of mRNA expression. […] These cells express endogenous PAR1 and can elicit calcium signal upon stimulation with PAR1 agonist peptide.
Counter screens for agonist activity and PAR1 antagonist activity were also performed. Briefly, HEK293 EBNA PAR4 clone 20664.1J cells were plated 24 hrs. prior to experiment in 384 well, Poly-D-Lysine coated, black, clear bottom plates (Greiner Bio-One, Monroe, N.C.). Cells were plated at 20,000 cells/well in […] growth medium and incubated at 37° C. with 5% CO2 overnight. At time of assay, media was replaced with 40 μl 1× Hank's Buffered Saline Solution (HBSS) (with 10 mM HEPES) and 20 μl test compound also diluted in 1×HBSS buffer was added at various concentrations and 0.67% DMSO final concentration on the FDSS for agonist measurement. The cells were then incubated for 30 minutes at room temperature followed by addition of 20 μl of agonist peptide for antagonist measurement on the FDSS.
As indicated above, the FLIPR assay, an in vitro assay, measures the PAR4 antagonist activity of compounds tested as described in Example A. The PRP assay, an in vitro assay, measures the PAR4 antagonist assay of the compounds tested in the presence of plasma proteins and thrombin agonist as described in Example C.

Chain of PAR4 (Q96RI0 18-385): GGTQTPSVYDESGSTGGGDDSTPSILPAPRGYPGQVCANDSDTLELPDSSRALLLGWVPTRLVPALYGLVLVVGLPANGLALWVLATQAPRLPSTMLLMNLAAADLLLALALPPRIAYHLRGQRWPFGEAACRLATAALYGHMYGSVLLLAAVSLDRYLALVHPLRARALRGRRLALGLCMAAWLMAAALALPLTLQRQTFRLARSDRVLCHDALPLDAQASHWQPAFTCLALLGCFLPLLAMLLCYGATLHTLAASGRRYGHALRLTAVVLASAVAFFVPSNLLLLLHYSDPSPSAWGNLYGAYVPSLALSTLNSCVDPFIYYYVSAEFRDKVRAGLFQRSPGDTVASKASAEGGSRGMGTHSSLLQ

Row | SMILES | EC50 [nM]
1 | CNC(=O)c1ccc(-c2nc(COc3cc(OC)cc4oc(-c5cn6nc(OC)sc6n5)cc34)c(C)s2)cc1 [Example 49, 4-(4-(((6-Methoxy-2-(2-methoxyimidazo[2,1-b][1,3,4]thiadiazol-6-yl)benzofuran-4-yl)oxy)methyl)-5-methylthiazol-2-yl)-N-methylbenzamide] | 0.82
2 | CCN(C)C(=O)c1ccc(-c2nc(COc3cc(OC)cc4oc(-c5cn6nc(OC)sc6n5)cc34)cs2)cc1 [Example 308] | 0.64
3 | COc1cc(OCc2csc(-c3ccc(C(=O)NC4CC4)cc3)n2)c2cc(-c3cn4nc(OC)sc4n3)oc2c1 [Example 315] | 1.3
4 | COc1cc(OCc2csc(NC(C)C)n2)c2cc(-c3cn4nc(C)ccc4n3)oc2c1 [Example 255] | 1.7
5 | COc1cc(OCc2csc(C(O)(C3CCCCC3)C(F)(F)F)n2)c2cc(-c3cn4nc(OC)sc4n3)oc2c1 (stereo not drawn) [Example 146] | 0.73
6 | COc1cc(OCc2nc(N3CCOCC3)sc2C(C)(C)O)c2cc(-c3cn4nc(OC)sc4n3)oc2c1 [Example 91, 2-(4-(((6-Methoxy-2-(2-methoxyimidazo[2,1-b][1,3,4]thiadiazol-6-yl)benzofuran-4-yl)oxy)methyl)-2-morpholinothiazol-5-yl)propan-2-ol] | 0.27
7 | COc1cc(OCc2csc(C3(NS(=O)(=O)C(C)(C)C)CCOCC3)n2)c2cc(-c3cn4nc(OC)sc4n3)oc2c1 [Example 171, N-(4-(4-(((6-Methoxy-2-(2-methoxyimidazo[2,1-b][1,3,4]thiadiazol-6-yl)benzofuran-4-yl)oxy)methyl)thiazol-2-yl)tetrahydro-2H-pyran-4-yl)-2-methylpropane-2-sulfonamide] | 0.27
8 | COc1cc(OCc2csc(N3CCS(=O)(=O)CC3)n2)c2cc(-c3cn4nc(OC)sc4n3)oc2c1 [Example 54] | 0.36
9 | C[C@H](F)c1nn2cc(-c3cc4c(OCc5csc(-c6ccccc6)n5)cc(F)cc4o3)nc2s1 [Example 195] | 1.3
10 | COc1cc(OCc2coc(N3CC4CCC(C3)O4)n2)c2cc(-c3cn4nc(OC)sc4n3)oc2c1 [Example 98, 3-(4-(((6-Methoxy-2-(2-methoxyimidazo[2,1-b][1,3,4]thiadiazol-6-yl)benzofuran-4-yl)oxy)methyl)oxazol-2-yl)-8-oxa-3-azabicyclo[3.2.1]octane] | 0.37
11 | COc1cc(OCc2csc(C3(F)CCOCC3)n2)c2cc(-c3cn4nc(OC)sc4n3)oc2c1 [Example 119, 6-(4-((2-(4-Fluorotetrahydro-2H-pyran-4-yl)thiazol-4-yl)methoxy)-6-methoxybenzofuran-2-yl)-2-methoxyimidazo[2,1-b][1,3,4]thiadiazole] | 0.72
12 | COc1cc(OCc2csc(-c3ccc(C(=O)N(C)C)cc3)n2)c2cc(-c3cn4nc(C)ccc4n3)oc2c1 [Example 223] | 0.62
13 | COc1cc(OCc2nc(-c3cccc(COC(C)=O)c3)sc2C)c2cc(-c3cn4nc(C)ccc4n3)oc2c1 [Example 229] | 0.76
14 | COc1cc(OCc2csc(-c3ccc(COC(C)=O)cc3)n2)c2cc(-c3cn4nc(C)ccc4n3)oc2c1 [Example 226] | 0.81
15 | COc1cc(OCc2csc(Nc3cccc(N(C)C)c3)n2)c2cc(-c3cn4nc(C)ccc4n3)oc2c1 [Example 248] | 3.1
16 | COc1cc(OCc2csc(-c3ccc(C#N)cc3)n2)c2cc(-c3cn4nc(OC)sc4n3)oc2c1 [Example 64] | 2.3
17 | COc1cc(OCc2csc(-c3cccc(C#N)c3)n2)c2cc(-c3cn4nc(OC)sc4n3)oc2c1 [Example 61] | 0.64
18 | CCCN(C(=O)c1ccc(-c2nc(COc3cc(OC)cc4oc(-c5cn6nc(OC)sc6n5)cc34)cs2)cc1)C(C)C1CC1 (stereo not drawn) [Example 313] | 0.43
19 | COc1cc(OCc2csc(C3(c4ccc(Cl)cc4)CCOC3)n2)c2cc(-c3cn4nc(OC)sc4n3)oc2c1 (stereo not drawn) [Example 163, 6-(4-((2-(3-(4-Chlorophenyl)tetrahydrofuran-3-yl)thiazol-4-yl)methoxy)-6-methoxybenzofuran-2-yl)-2-methoxyimidazo[2,1-b][1,3,4]thiadiazole] | 0.82
20 | COc1cc(OCc2csc(N3CCSCC3)n2)c2cc(-c3cn4nc(OC)sc4n3)oc2c1 [Example 53] | 0.52

Row | SMILES | EC50 [nM]
21 | COc1cc(OCc2csc(N3CCC(F)CC3)n2)c2cc(-c3cn4nc(C)ccc4n3)oc2c1 [Example 272] | 2
22 | COc1cc(OCc2csc(C(O)(C3CC3)C3CC3)n2)c2cc(-c3cn4nc(OC)sc4n3)oc2c1 [Example 144] | 0.26
23 | COc1cc(OCc2nc(-c3ccnc(F)c3)sc2C(C)C)c2cc(-c3cn4nc(OC)sc4n3)oc2c1 [Example 43, 6-(4-((2-(2-Fluoropyridin-4-yl)-5-isopropylthiazol-4-yl)methoxy)-6-methoxybenzofuran-2-yl)-2-methoxyimidazo[2,1-b][1,3,4]thiadiazole] | 0.34
24 | COc1cc(OCc2csc(N3CC4(COC4)C3)n2)c2cc(-c3cn4nc(OC)sc4n3)oc2c1 [Example 104, 6-(4-(((6-Methoxy-2-(2-methoxyimidazo[2,1-b][1,3,4]thiadiazol-6-yl)benzofuran-4-yl)oxy)methyl)thiazol-2-yl)-2-oxa-6-azaspiro[3.3]heptane] | 0.68
25 | COc1cc(OCc2csc(N3CCN(c4ccccn4)CC3)n2)c2cc(-c3cn4nc(C)ccc4n3)oc2c1 [Example 263] | 1.2
26 | COc1cc(OCc2csc(C3(c4ccccc4F)CCOCC3)n2)c2cc(-c3cn4nc(OC)sc4n3)oc2c1 [Example 156, 6-(4-((2-(4-(2-Fluorophenyl)tetrahydro-2H-pyran-4-yl)thiazol-4-yl)methoxy)-6-methoxybenzofuran-2-yl)-2-methoxyimidazo[2,1-b][1,3,4]thiadiazole] | 0.52
27 | C=CCN(C)C(=O)c1ccc(-c2nc(COc3cc(OC)cc4oc(-c5cn6nc(OC)sc6n5)cc34)cs2)cc1 [Example 296] | 2.2
28 | COc1cc(OCc2nc(N3CCOCC3)sc2C(F)(F)F)c2cc(-c3cn4nc(C)ccc4n3)oc2c1 [Example 220] | 0.72
29 | COc1cc(OCc2csc(N3CCN(C(=O)OC(C)(C)C)CC3)n2)c2cc(-c3cn4nc(OC)sc4n3)oc2c1 [Example 99, tert-Butyl 4-(4-(((6-methoxy-2-(2-methoxyimidazo[2,1-b][1,3,4]thiadiazol-6-yl)benzofuran-4-yl)oxy)methyl)thiazol-2-yl)piperazine-1-carboxylate] | 0.84
30 | COCCC(C)(F)c1nc(COc2cc(OC)cc3oc(-c4cn5nc(OC)sc5n4)cc23)cs1 (stereo not drawn) [Example 147] | 0.96
31 | CCN(CCC#N)C(=O)c1ccc(-c2nc(COc3cc(OC)cc4oc(-c5cn6nc(OC)sc6n5)cc34)cs2)cc1 [Example 292] | 0.27
32 | COc1cc(OCc2nc(N3CCOCC3)oc2C)c2cc(-c3cn4nc(OC)sc4n3)oc2c1 [Example 97, 4-(4-(((6-Methoxy-2-(2-methoxyimidazo[2,1-b][1,3,4]thiadiazol-6-yl)benzofuran-4-yl)oxy)methyl)-5-methyloxazol-2-yl)morpholine] | 0.63
33 | CNC(=O)c1ccc(-c2nc(COc3cc(F)cc4oc(-c5cn6nc(OC)sc6n5)cc34)c(C)s2)cc1 [Example 186, 4-(4-(((6-Fluoro-2-(2-methoxyimidazo[2,1-b][1,3,4]thiadiazol-6-yl)benzofuran-4-yl)oxy)methyl)-5-methylthiazol-2-yl)-N-methylbenzamide] | 0.58
34 | COc1cc(OCc2csc(C3CCN(S(=O)(=O)c4ccccc4)CC3)n2)c2cc(-c3cn4nc(OC)sc4n3)oc2c1 [Example 113, 2-Methoxy-6-(6-methoxy-4-((2-(1-(phenylsulfonyl)piperidin-4-yl)thiazol-4-yl)methoxy)benzofuran-2-yl)imidazo[2,1-b][1,3,4]thiadiazole] | 0.43
35 | COc1cc(OCc2nc(-c3cccc(CO)c3)sc2C)c2cc(-c3cn4nc(C)ccc4n3)oc2c1 [Example 230] | 1.3
36 | COc1cc(OCc2csc(C3(F)CCOCC3)n2)c2cc(-c3cn4nc([C@H](C)F)sc4n3)oc2c1 [Example 197, (S)-2-(1-Fluoroethyl)-6-(4-((2-(4-fluorotetrahydro-2H-pyran-4-yl)thiazol-4-yl)methoxy)-6-methoxybenzofuran-2-yl)imidazo[2,1-b][1,3,4]thiadiazole] | 0.34
37 | COc1cc(OCc2csc(-c3ccc(C(=O)N(C4CC4)C4CC4)cc3)n2)c2cc(-c3cn4nc(OC)sc4n3)oc2c1 [Example 316] | 0.95
38 | COc1cc(OCc2csc(N3CCN(S(=O)(=O)C(C)C)CC3)n2)c2cc(-c3cn4nc(OC)sc4n3)oc2c1 [Example 102, 6-(4-((2-(4-(Isopropylsulfonyl)piperazin-1-yl)thiazol-4-yl)methoxy)-6-methoxybenzofuran-2-yl)-2-methoxyimidazo[2,1-b][1,3,4]thiadiazole] | 2.3
39 | COc1cc(OCc2csc(Nc3ccc(Br)cc3C)n2)c2cc(-c3cn4nc(OC)sc4n3)oc2c1 [Example 108, N-(4-Bromo-2-methylphenyl)-4-(((6-methoxy-2-(2-methoxyimidazo[2,1-b][1,3,4]thiadiazol-6-yl)benzofuran-4-yl)oxy)methyl)thiazol-2-amine] | 1.2
